Assay results reported in patent publication US7683089B1, “4-(Phenylmethyl and substituted phenylmethyl)-imidazole-2-thiones acting as specific alpha2 adrenergic agonists” (Allergan, Inc, priority 2004, dated 2010).

Experiments:
[1] = target: T1, alpha2C adrenergic receptor (Homo sapiens, UniProt P18825); assay: Receptor Selection and Amplification Technology (RSAT) assay, alpha2C; format: cell-based; details: RSAT in NIH-3T3 cells; ratio of maximal effect of drug to that of standard full agonist brimonidine (UK14304); NA = not active at concentrations less than 10 micromolar
T1 construct: expressed in transfected cells; host or cells: NIH-3T3 cells
T1 sequence (P18825 1-462): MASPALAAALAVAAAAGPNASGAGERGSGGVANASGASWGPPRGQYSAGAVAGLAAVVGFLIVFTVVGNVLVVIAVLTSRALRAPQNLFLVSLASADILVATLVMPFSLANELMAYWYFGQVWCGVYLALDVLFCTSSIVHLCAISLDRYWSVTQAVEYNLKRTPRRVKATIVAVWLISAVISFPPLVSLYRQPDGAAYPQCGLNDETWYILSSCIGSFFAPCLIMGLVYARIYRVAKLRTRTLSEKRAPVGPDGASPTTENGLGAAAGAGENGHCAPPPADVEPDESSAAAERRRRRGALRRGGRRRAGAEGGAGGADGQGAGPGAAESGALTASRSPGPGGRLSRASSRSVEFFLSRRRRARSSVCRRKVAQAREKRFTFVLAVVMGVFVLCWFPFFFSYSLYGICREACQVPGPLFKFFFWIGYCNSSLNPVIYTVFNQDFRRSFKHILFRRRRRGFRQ
From the text: (§1) The imidazole-2-thione compounds of the invention are agonists of alpha2 adrenergic receptors. […] Al., 1995, Pharmacol. Toxicol. 76, pp. 308-311 (incorporated herein by reference) and is also described below. Another reference pertinent to this assay is Conklin et al. (1993) Nature 363:274-6, also incorporated herein by reference.
(§2) Receptor Selection and Amplification Technology (RSAT) Assay
(§3) The RSAT assay measures a receptor-mediated loss of contact inhibition that results in selective proliferation of receptor-containing cells in a mixed population of confluent cells. The increase in cell number is assessed with an appropriate transfected marker gene such as β-galactosidase, the activity of which can be easily measured in a 96-well format. Receptors that activate the G protein, Gq, elicit this response. Alpha2 receptors, which normally couple to Gi, activate the RSAT response when coexpressed with a hybrid Gq protein that has a Gi receptor recognition domain, called Gq/i5.
(§4) NIH-3T3 cells are plated at a density of 2×10^6 cells in 15 cm dishes and maintained in Dulbecco's modified Eagle's medium supplemented with 10% calf serum. One day later, cells are cotransfected by calcium phosphate precipitation with mammalian expression plasmids encoding p-SV-β-galactosidase (5-10 μg), receptor (1-2 μg) and G protein (1-2 μg). 40 μg salmon sperm DNA may also be included in the transfection mixture. […] After washing with phosphate-buffered saline, β-galactosidase enzyme activity is determined by adding 200 μl of the chromogenic substrate (consisting of 3.5 mM o-nitrophenyl-β-D-galactopyranoside and 0.5% nonidet P-40 in phosphate buffered saline), incubating overnight at 30° C. and measuring optical density at 420 nm. The absorbance is a measure of enzyme activity, which depends on cell number and reflects a receptor-mediated cell proliferation. The efficacy or intrinsic activity is calculated as a ratio of the maximal effect of the drug to the maximal effect of a standard full agonist for each receptor subtype. […]

[2] = target: T2, alpha2A adrenergic receptor (Homo sapiens, UniProt P08913); assay: Receptor Selection and Amplification Technology (RSAT) assay, alpha2A; format: cell-based; details: RSAT in NIH-3T3 cells; ratio of maximal effect of drug to that of standard full agonist brimonidine (UK14304); NA = not active at concentrations less than 10 micromolar
T2 construct: expressed in transfected cells; host or cells: NIH-3T3 cells
T2 sequence (P08913 1-465): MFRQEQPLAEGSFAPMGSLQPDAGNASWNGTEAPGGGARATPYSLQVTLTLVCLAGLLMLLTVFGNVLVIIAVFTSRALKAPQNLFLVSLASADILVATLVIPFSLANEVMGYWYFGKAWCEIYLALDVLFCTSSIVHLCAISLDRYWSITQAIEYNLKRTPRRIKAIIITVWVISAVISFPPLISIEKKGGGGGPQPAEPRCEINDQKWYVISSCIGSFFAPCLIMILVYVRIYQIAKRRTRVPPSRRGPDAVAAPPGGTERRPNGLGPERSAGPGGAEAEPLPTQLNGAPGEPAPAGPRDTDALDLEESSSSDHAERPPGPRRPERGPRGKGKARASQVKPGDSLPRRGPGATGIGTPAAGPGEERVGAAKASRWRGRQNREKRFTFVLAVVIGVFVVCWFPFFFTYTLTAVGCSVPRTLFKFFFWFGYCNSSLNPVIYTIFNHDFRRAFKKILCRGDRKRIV
From the text: as §1, §2, §3, §4

[3] = target: T3, alpha2B adrenergic receptor (Homo sapiens, UniProt P18089); assay: Receptor Selection and Amplification Technology (RSAT) assay, alpha2B; format: cell-based; details: RSAT in NIH-3T3 cells; ratio of maximal effect of drug to that of standard full agonist brimonidine (UK14304); NA = not active at concentrations less than 10 micromolar
T3 construct: expressed in transfected cells; host or cells: NIH-3T3 cells
T3 sequence (P18089 1-450): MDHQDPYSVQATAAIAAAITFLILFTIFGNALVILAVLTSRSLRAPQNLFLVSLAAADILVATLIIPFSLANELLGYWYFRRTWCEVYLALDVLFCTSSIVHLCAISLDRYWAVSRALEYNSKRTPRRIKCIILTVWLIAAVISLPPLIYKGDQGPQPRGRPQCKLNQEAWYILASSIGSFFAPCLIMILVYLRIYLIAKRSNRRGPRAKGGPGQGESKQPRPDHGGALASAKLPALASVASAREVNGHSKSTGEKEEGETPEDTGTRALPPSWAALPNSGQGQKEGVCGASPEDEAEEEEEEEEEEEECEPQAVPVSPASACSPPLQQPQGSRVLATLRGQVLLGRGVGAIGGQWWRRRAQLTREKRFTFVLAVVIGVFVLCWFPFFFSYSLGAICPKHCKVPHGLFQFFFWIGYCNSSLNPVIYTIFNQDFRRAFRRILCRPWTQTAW
From the text: as §1, §2, §3
NIH-3T3 cells are plated at a density of 2×10^6 cells in 15 cm dishes and maintained in Dulbecco's modified Eagle's medium supplemented with 10% calf serum. One day later, cells are cotransfected by calcium phosphate precipitation with mammalian expression plasmids encoding p-SV-β-galactosidase (5-10 μg), receptor (1-2 μg) and G protein (1-2 μg). 40 μg salmon sperm DNA may also be included in the transfection mixture. Fresh media is added on the following day and 1-2 days later, cells are harvested and frozen in 50 assay aliquots. Cells are thawed and 100 μl added to 100 μl aliquots of various concentrations of drugs in triplicate in 96-well dishes. Incubations continue 72-96 hr at 37° C. After washing with phosphate-buffered saline, β-galactosidase enzyme activity is determined by adding 200 μl of the chromogenic substrate (consisting of 3.5 mM o-nitrophenyl-β-D-galactopyranoside and 0.5% nonidet P-40 in phosphate buffered saline), incubating overnight at 30° C. and measuring optical density at 420 nm. The absorbance is a measure of enzyme activity, which depends on cell number and reflects a receptor-mediated cell proliferation. The efficacy or intrinsic activity is calculated as a ratio of the maximal effect of the drug to the maximal effect of a standard full agonist for each receptor subtype. […]
The RSAT assay measures a receptor-mediated loss of contact inhibition that results in selective proliferation of receptor-containing cells in a mixed population of confluent cells. The increase in cell number is assessed with an appropriate transfected marker gene such as ∃-galactosidase, the activity of which can be easily measured in a 96-well format. […]

male Sprague-Dawley rats = assay: Sedative activity (exploratory behavior/locomotor skills); format: in vivo, rat; details: intraperitoneally, up to a dose of 1 mg/kg, 30 minutes after injection
Method: To test sedation, six male Sprague-Dawley rats are given up to 3 mg/kg of the test compound in a saline or DMSO vehicle by intraperitoneal injection (i.p.). Sedation is graded 30 minutes following administration of the drug by monitoring locomotor skills as follows.
The Sprague-Dawley rats are weighed and 1 ml/kg body weight of an appropriate concentration (ie. 3 mg/ml for a final dose of 3 mg/kg) drug solution is injected intraperitoneally. Typically the test compound is formulated in approximately 10 to 50% DMSO. The results are compared to controls that are injected with 1 ml/kg saline or 10 to 50% DMSO. Rat activity is then determined 30 minutes after injection of the drug solution. Rats are placed in a dark covered chamber and a digicom analyzer (Omnitech Electronic) quantitates their exploratory behavior for a five-minute period. The machine records each time the rat interrupts an array of 32 photoelectric beams in the X and Y orientation.

SMILES	Intrinsic Activity Alpha 2C [1]	Intrinsic Activity Alpha 2A [2]	Intrinsic Activity Alpha 2B [3]	sedative effect (male Sprague-Dawley rats)
CC(c1c[nH]c(=S)[nH]1)c1cccc(Cl)c1Cl (stereo not drawn) [Compound 1, 4-[1-(2,3-dichloro-phenyl)-ethyl]-1,3-dihydro-imidazole-2-thione]	1.03	0.87	0.85	no sedative effect
CC(c1c[nH]c(=S)[nH]1)c1cccc(F)c1F (stereo not drawn) [Compound 2, 4-[1-(2,3-difluoro-phenyl)-ethyl]-1,3-dihydro-imidazole-2-thione]	0.83	0.66	0.99	
CC(c1c[nH]c(=S)[nH]1)c1cccc(C(F)(F)F)c1F (stereo not drawn) [Compound 3, 4-[1-(2-fluoro-3-trifluoromethyl-phenyl)-ethyl]-1,3-dihydro-imidazole-2-thione]	0.84	0.88	1.04	no sedative effect
CC(c1ccccc1)c1c[nH]c(=S)[nH]1 (stereo not drawn) [Compound 4, 4-(1-phenyl-ethyl)-1,3-dihydro-imidazole-2-thione]			1.11	
